This note sets out measurements from US8759300B2, “Polypeptides and methods of use” (The Research Foundation for the State University of New York, priority 2007, dated 2014).

No end group written: not given here.

Assay [1] relates to TGF-β1 binding to intact human plasma FN. The assay is described as follows: Inhibition of I125 TGF-β1 binding to immobilized FN by growth factor peptide. The following applies: increasing concentrations of peptide; 25° C., 2 hours. As for the experimental part: (§1) FIG. 9. Inhibition of TGF-β1 and PDGF-BB binding to intact human plasma FN with TGF-β1 and PDGF-BB FN-binding peptides, respectively. FN was adsorbed onto tissue culture plastic at a concentration of 0.125 μM and then excess protein-binding sites of the plastic blocked with 2% bovine serum albumin. Growth factor labeled with I^125 was incubated with FN-coated plates at 25° C. for 2 hours in the presence or absence of peptide. Data was calculated as [(GF binding in presence of peptide−background)/(GF binding in absence of peptide-background)]×100. n=3.
Sequence of TGF-β1 binding to intact human plasma FN (P02751 610-812 limits assumed): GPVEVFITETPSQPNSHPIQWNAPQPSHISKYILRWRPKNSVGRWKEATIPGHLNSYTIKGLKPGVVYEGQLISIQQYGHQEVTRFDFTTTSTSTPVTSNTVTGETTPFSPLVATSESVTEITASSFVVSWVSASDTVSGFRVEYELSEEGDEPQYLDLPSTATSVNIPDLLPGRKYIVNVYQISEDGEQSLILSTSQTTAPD
Sequence of TGF-β1 binding to intact human plasma FN (P02751 1815-2080 limits assumed): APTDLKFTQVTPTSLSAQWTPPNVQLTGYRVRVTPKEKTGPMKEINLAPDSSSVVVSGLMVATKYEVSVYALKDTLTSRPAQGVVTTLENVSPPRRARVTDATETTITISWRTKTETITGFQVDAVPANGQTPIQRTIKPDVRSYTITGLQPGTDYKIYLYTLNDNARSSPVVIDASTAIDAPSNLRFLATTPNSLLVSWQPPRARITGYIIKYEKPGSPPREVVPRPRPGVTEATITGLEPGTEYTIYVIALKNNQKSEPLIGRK
(§2) Two of these synthetic peptides (homologous to TGF-β1 and homologous to PDGF-BB) inhibit TGF-β1 and PDGF-BB binding to FN respectively (FIG. 9). Inhibition of TGF-β1 and PDGF-BB binding to intact human plasma FN was determined as follows. FN was adsorbed onto tissue culture plastic at a concentration of 0.125 μM and then excess protein-binding sites of the plastic blocked with 2% bovine serum albumin. Growth factor labeled with I^125 was incubated with FN-coated plates at 25° C. for 2 hours in the presence or absence of peptide. For example, relative binding of TGF-β1 to immobilized FN was determined for increasing concentrations of the synthetic peptide homologous to TGF-β1. […] For example, relative binding of PDGF-BB to immobilized FN was determined for increasing concentrations of the synthetic peptide homologous to PDGF-BB. […]

For assay [2], the system named is PDGF-BB binding to intact human plasma FN. The assay is described as follows: Inhibition of I125 PDGF-BB binding to immobilized FN by growth factor peptide. The following applies: increasing concentrations of peptide; 25° C., 2 hours. As for the experimental part:
as §1, §2

The subject of another assay is AHDF cells. The assay is described as follows: AHDF proliferation response to PDGF-BB, XTT assay. The assay is classed as cell-based, human. The following applies: 30 ng/mL PDGF-BB, 1 week. Here is the method:
FIG. 7. […] AHDF cells were cultured at 4,000 cells/well in uncoated 96-well plates. Cells were incubated in DMEM for 4 hrs, and then further incubated in DMEM, 2% BSA, 30 ng/mL PDGF-BB with and without Peptide 5 (P5) at 37° C. for 1 week. Proliferation was estimated by the XTT assay (Promega) according to the manufacturer's instructions (mean±SD, n=4).
A general note: Formazan colour is commonly taken as a measure of viable cells.

A further assay has as its system FN-null cells. The assay can be described thus: FN-null cell assay, peptides added directly to medium on FNIII8-11. The assay is classed as cell-based, mouse. The following applies: peptide added directly to media with or without PDGF-BB. Here is the method:
FIG. 6. FN-null fibroblast response to soluble, unconjugated P5 (SEQ ID NO:37). FN-null cells were cultured at 4,000 cells/well in 96 well plates precoated with 0.125 mM of FNIII8-11 in DMEM for 4 hrs, and then further incubated in DMEM+2% BSA with or without the indicated concentrations of Peptide 5 at 37° C. for 3 days. Cells were counted in three 10× fields in each of 4 wells (mean±SD, n−12).
Scrambled variants of peptides 1 and 5 had no activity in these assays.
Variants of peptide 5 derived from fibronectin were generated by removing one amino acid at a time from the N-terminus or C-terminus of Peptide 5 (Table 2). These peptides (P12-P24) were added directly to medium with or without PDGF-BB.

Sequence of PDGF-BB binding to intact human plasma FN (P02751 610-812 limits assumed): as the sequence (P02751 610-812 limits assumed) above
Sequence of PDGF-BB binding to intact human plasma FN (P02751 1815-2080 limits assumed): as the sequence (P02751 1815-2080 limits assumed) above

As for “CCVRQLYIDFRKDLG [synthetic peptide homologous to TGF-β1]”, the “Proportion of full-length TGF-β1 bound to immobilized FN” value in assay [1] is reported as “decreased with increasing concentration”.
As for “CKTRTEVFEISRRLI [synthetic peptide homologous to PDGF-BB]”, in assay [2], the “Proportion of full-length PDGF-BB bound to immobilized FN” value was “decreased with increasing concentration”.
As for QPSHISKYILRWRPK [P5, QPSHISKYILRWRPK], the “AHDF proliferation response to PDGF-BB” value with AHDF cells is listed as “enhanced AHDF proliferation response to PDGF-BB”. For the same sequence, the “FN null cell survival and proliferation” value in the assay with FN-null cells is “supported FN null cell survival and proliferation”.
